We go through one compound from patent publication US20130144068A1, “Methods for the Sterilization of Bendamustine” (Cephalon, Inc., priority 2010, published 2013).

Series [1] is described as follows: HPLC purity of bendamustine HCl after sterilization. In kind it is physicochemical. As for the experimental part: 100 mg each of bendamustine HCl was weighed into a 20 mL tubing vial, a 20 mL amber vial, and a 20 mL clear vial. Rubber stoppers were inserted and aluminum caps crimped on. The vials were passed through a gamma irradiation line and received doses in the range of 29.3 kGy to about 32.3 kGy. Purity and sterility testing was then performed.
100 mg each of bendamustine HCl was weighed into a 20 mL tubing vial, a 20 mL amber vial, and a 20 mL clear vial. Rubber stoppers were inserted and aluminum caps crimped on. The vials were passed through an electron beam irradiation line and received a dose of about 30 kGy. Purity and sterility testing was then performed.
To each 10 mg of bendamustine HCl, sterilized according to the methods described above, was added 10 mL N-methyl-2-pyrrolidone (NMP). A reference standard of bendamustine HCl was prepared in NMP having a concentration of 1 mg/mL. HPLC was performed according to conventional methods.

The conditions of series [2]: heating; background statement; cited from earlier work.

Regarding `Cl.Cn1c(CCCC(=O)O)nc2cc(N(CCCl)CCCl)ccc21` [bendamustine HCl, Bendamustine hydrochloride], the “HPLC purity (% area)” value in series [1] (after E-beam irradiation, about 30 kGy, 100 mg solid in amber vial) was 99.70 % area; in series [1] (after E-beam irradiation, about 30 kGy, 100 mg solid in clear vial), 99.70 % area; in series [1] (after gamma irradiation, 29.3 kGy to about 32.3 kGy, 100 mg solid in amber vial) it was 99.70 % area; in series [1] (after gamma irradiation, 29.3 kGy to about 32.3 kGy, 100 mg solid in clear vial) it was 99.64 % area. Further, the “Temperature at which the solid chars when heated” value in series [2] is 160 °C.
